Several values for one entry are separate records, joined by “and”; a condition that tells them apart may be missing. Equal values may be shown once.
Test: RSV-A Assay: The description is Japanese.

Row | Compound | EC50
1 | COCCn1cc(-c2nnc(N[C@H]3N=C(c4ccccc4)c4ccccc4NC3=O)o2)c(N2CCOCC2)n1 | < 0.4 µM
2 | N#CC1CCN(c2ncccc2-c2nnc(NC3N=C(c4ccccc4)c4ccccc4NC3=O)o2)CC1 (configuration not stated) | > 0.8 µM
3 | O=C1Nc2ccccc2C(c2ccccc2)=N[C@@H]1Nc1nnc(-c2nc(C3CCCCC3)sc2N2CCOCC2)o1 | < 0.4 µM
4 | N#Cc1ccc(-c2ccc(NC3N=C(c4ccccc4)c4ccccc4NC3=O)nn2)cc1 (configuration not stated) | < 0.4 µM
5 | COCCOC(=O)c1nc2ccccc2n1CCOC | > 0.8 µM
6 | O=C1Nc2ccccc2C(c2ccccc2)=NC1Nc1nnc(-c2ccccn2)o1 (configuration not stated) | in the range around 0.6 µM
7 | CCOC(=O)c1cnn2ccc(C)cc12 | > 0.8 µM
8 | O=C1Nc2ccccc2C(c2ccccc2)=N[C@@H]1Nc1nnc(-c2ccnn2-c2ccccc2)o1 | > 0.8 µM
9 | N#Cc1cnc(-c2nnc(N[C@H]3N=C(c4ccccc4)c4cccc(F)c4NC3=O)o2)c(N2CCOCC2)c1 | < 0.4 µM
10 | O=C1Nc2ccccc2C(c2ccccc2)=NC1Nc1nnc(-c2ccccc2)[nH]1 (configuration not stated) | > 0.8 µM
11 | N#Cc1ccc(-c2nnc(NC3N=C(c4ccccc4)c4ccccc4NC3=O)o2)s1 (configuration not stated) | < 0.4 µM
12 | O=C1Nc2ccccc2C(c2ccccc2)=N[C@@H]1Nc1nnc(-c2ccc(C(F)(F)F)nc2N2CC3CCC(C2)O3)o1 | in the range around 0.6 µM
13 | Cc1cc(-c2nnc(N[C@H]3N=C(c4ccccc4)c4ccccc4NC3=O)o2)c(N2CCOCC2)s1 | < 0.4 µM
14 | O=C1Nc2ccccc2C(c2ccccc2)=NC1Nc1nnc(C2CCC2)o1 (configuration not stated) | > 0.8 µM
15 | COCCOc1cc(C#N)ccc1-c1nnc(N[C@H]2N=C(c3ccccc3)c3ccccc3NC2=O)o1 | < 0.4 µM
16 | CN1CCc2nc(-c3nnc(NC4N=C(c5ccccc5)c5ccccc5NC4=O)o3)sc2C1 (configuration not stated) | > 0.8 µM
17 | O=C1Nc2ccccc2C(c2ccccc2)=N[C@@H]1Nc1nnc(-c2oc3cccc(F)c3c2N2CCOCC2)o1 | < 0.4 µM
18 | Cc1nc(-c2nnc(N[C@H]3N=C(c4ccccc4)c4ccccc4NC3=O)o2)c(C2CCOCC2)s1 | < 0.4 µM
19 | COC(=O)c1nc(C)sc1N1CCOCC1 | < 0.4 µM
20 | O=C1Nc2ccccc2C(c2ccccc2)=NC1Nc1ccc(-c2ccccc2N2CCOCC2)nn1 (configuration not stated) | > 0.8 µM
21 | COCCNc1sccc1-c1nnc(N[C@H]2N=C(c3ccccc3)c3ccccc3NC2=O)o1 | > 0.8 µM
22 | CCOC(=O)c1nc(-c2ccc(F)cn2)sc1N1CCOCC1 | < 0.4 µM
23 | O=C1Nc2ccccc2C(c2ccccc2)=NC1Nc1nnc(-c2ccc(N3CCCC3)cc2)o1 (configuration not stated) | in the range around 0.6 µM

Row | Compound | EC50
24 | CCOC(=O)c1cn(-c2cccnc2)nc1N1CCOCC1 | < 0.4 µM
25 | COC[C@@H]1C[C@H]1c1sc(C(F)(F)F)nc1-c1nnc(N[C@H]2N=C(c3ccccc3)c3ccccc3NC2=O)o1 | > 0.8 µM
26 | O=C1Nc2ccccc2C(c2ccccc2)=N[C@@H]1Nc1nnc(-c2ncc(F)cc2N2CC3CCC(C2)O3)o1 | < 0.4 µM
27 | O=C1Nc2ccccc2C(c2ccccc2)=N[C@@H]1Nc1nnc(-c2ncc(C(F)(F)F)cc2NC[C@H]2CCCO2)o1 | < 0.4 µM
28 | O=C1Nc2ccccc2C(c2ccccc2)=NC1Nc1nnc(-c2cccnc2N2C[C@H]3COC[C@H]3C2)o1 (some centres not stated) | > 0.8 µM
29 | O=C1Nc2ccccc2C(c2ccccc2)=N[C@@H]1Nc1nnc(-c2nc(C(F)(F)F)sc2NCC2COC2)o1 | in the range around 0.6 µM
30 | O=C1Nc2ccccc2C(c2ccccc2)=NC1Nc1nnc(-c2cscn2)o1 (configuration not stated) | in the range around 0.6 µM
31 | O=C1Nc2ccccc2C(c2ccccc2)=N[C@@H]1Nc1nnc(-c2csc(N3CCOCC3)n2)o1 | in the range around 0.6 µM
32 | O=C1Nc2ccccc2C(c2ccccc2)=NC1Nc1nnc(-c2ccc(-n3ccc(C(F)(F)F)n3)cc2)o1 (configuration not stated) | > 0.8 µM
33 | COCCCc1cc(C(F)(F)F)cnc1-c1nnc(N[C@H]2N=C(c3ccccc3)c3ccccc3NC2=O)o1 | > 0.8 µM
34 | O=C1Nc2ccccc2C(c2ccccc2)=NC1Nc1cc(N2CCOCC2)cnn1 (configuration not stated) | > 0.8 µM
35 | C[C@@H]1CN(c2cc(C(F)(F)F)cnc2-c2nnc(N[C@H]3N=C(c4ccccc4)c4ccccc4NC3=O)o2)CCO1 | < 0.4 µM
36 | COc1cc(-c2nnc(NC3N=C(c4ccccc4)c4ccccc4NC3=O)o2)ccc1-n1cnc(C)c1 (configuration not stated) | > 0.8 µM
37 | Cn1nnc(-c2ccc(-c3nnc(NC4N=C(c5ccccc5)c5ccccc5NC4=O)o3)cc2)n1 (configuration not stated) | > 0.8 µM
38 | O=C1Nc2ccccc2C(c2ccccc2)=N[C@@H]1Nc1cc(-c2ccccc2)cnn1 | > 0.8 µM
39 | O=C1Nc2ccccc2C(c2ccccc2)=NC1Nc1nnc(-c2ccc(F)nc2N2CCOCC2)o1 (configuration not stated) | in the range around 0.6 µM and < 0.4 µM
40 | CC(C)(O)c1nnc(NC2N=C(c3ccccc3)c3ccccc3NC2=O)o1 (configuration not stated) | > 0.8 µM
41 | COc1cc(-c2nnc(NC3N=C(c4ccccc4)c4ccccc4NC3=O)o2)ccc1F (configuration not stated) | < 0.4 µM
42 | N#Cc1ccc(-c2nnc(NC3N=C(c4ccccc4)c4ccccc4NC3=O)o2)cc1F (configuration not stated) | > 0.8 µM
43 | CSC(=N)NC1N=C(c2ccccc2)c2ccccc2NC1=O (configuration not stated) | < 0.4 µM
44 | N#Cc1cccc(-c2nnc(NC3N=C(c4ccccc4)c4ccccc4NC3=O)o2)c1 (configuration not stated) | > 0.8 µM
45 | O=C1Nc2ccccc2C(c2ccccc2)=N[C@@H]1Nc1nnc(-c2ccc(C(F)(F)F)nc2N2C3CCC2COC3)o1 | > 0.8 µM
46 | O=C1Nc2ccccc2C(c2ccccc2)=NC1Nc1nnc(-c2ccccc2)s1 (configuration not stated) | > 0.8 µM

Row | Compound | EC50
47 | O=C1Nc2ccccc2C(c2ccccc2)=NC1Nc1nnc(-c2cccc(-n3ccnc3)c2)o1 (configuration not stated) | > 0.8 µM
48 | CC(C)(C)c1nnc(NC2N=C(c3ccccc3)c3ccccc3NC2=O)o1 (configuration not stated) | > 0.8 µM
49 | Cn1ncc(N2CCOCC2)c1-c1nnc(N[C@H]2N=C(c3ccccc3)c3ccccc3NC2=O)o1 | in the range around 0.6 µM
50 | O=C1Nc2ccccc2C(c2ccccc2)=N[C@@H]1Nc1nnc(-c2ccc(F)nc2N2CCOCC2)o1 | < 0.4 µM
51 | CCOC(=O)c1ccc(C2CC2)nc1Cl | < 0.4 µM
52 | O=C1Nc2ccccc2C(c2ccccc2)=NC1Nc1nnc(-c2ccc(-n3cncn3)nc2)o1 (configuration not stated) | > 0.8 µM
53 | Cn1cc(-c2cc(C#N)cnc2-c2nnc(N[C@H]3N=C(c4ccccc4)c4ccccc4NC3=O)o2)ccc1=O | > 0.8 µM
54 | O=C1Nc2ccccc2C(c2ccccc2)=NC1Nc1nnc(-c2ncc(C(F)(F)F)cc2N2CCOCC2)o1 (configuration not stated) | < 0.4 µM
55 | O=C1Nc2ccccc2C(c2ccccc2)=N[C@@H]1Nc1nnc(-c2cnc(N3CC4CCC(C3)O4)nc2)o1 | > 0.8 µM
56 | O=C1Nc2ccccc2C(c2ccccc2)=NC1Nc1nnc(-c2ncco2)o1 (configuration not stated) | > 0.8 µM
57 | O=C1Nc2ccccc2C(c2ccccc2)=NC1Nc1nnc(-c2cnccc2N2CCOCC2)o1 (configuration not stated) | in the range around 0.6 µM
58 | O=C1Nc2ccccc2C(c2ccccc2)=NC1Nc1nnc(-c2cccnc2N2CCC(O)CC2)o1 (configuration not stated) | > 0.8 µM
59 | COc1ccccc1-c1nnc(NC2N=C(c3ccccc3)c3ccccc3NC2=O)o1 (configuration not stated) | > 0.8 µM
60 | Cn1cc(N2CCOCC2)c(-c2nnc(N[C@H]3N=C(c4ccccc4)c4ccccc4NC3=O)o2)n1 | < 0.4 µM
61 | Cc1cc(-c2nnc(N[C@H]3N=C(c4ccccc4)c4ccccc4NC3=O)o2)n(C2CCOCC2)n1 | > 0.8 µM
62 | O=C1Nc2ccccc2C(c2ccccc2)=N[C@@H]1Nc1nnc(-c2ccsc2N2CCOCC2)o1 | < 0.4 µM
63 | CC(C)c1nnc(NC2N=C(c3ccccc3)c3ccccc3NC2=O)o1 (configuration not stated) | > 0.8 µM
64 | O=C1Nc2ccccc2C(c2cccc(F)c2)=NC1Nc1nnc(-c2ccc(F)cc2)o1 (configuration not stated) | in the range around 0.6 µM
65 | O=C1Nc2ccccc2C(c2ccccc2)=N[C@@H]1Nc1nnc(-c2ncc(C3CCCCC3)cc2N2CCOCC2)o1 | < 0.4 µM
66 | O=C1Nc2ccccc2C(c2ccccc2)=N[C@@H]1Nc1nnc(-c2ccccc2N2CCOCC2)o1 | < 0.4 µM
67 | O=C1Nc2ccccc2C(c2ccccc2)=NC1Nc1nnc(C2CCNCC2)o1 (configuration not stated) | > 0.8 µM
68 | O=C1Nc2ccccc2C(c2ccccc2)=N[C@@H]1Nc1nnc(-c2nc(-c3ccccc3F)sc2N2CCOCC2)o1 | < 0.4 µM
69 | O=C1Nc2ccccc2C(c2ccccc2)=NC1Nc1nnc(C23CCN(CC2)CC3)o1 (configuration not stated) | > 0.8 µM

Row | Compound | EC50
70 | CCOC(=O)c1ncc(C(F)(F)F)cc1-c1ccncc1 | > 0.8 µM
71 | COCCn1ccnc1-c1nnc(N[C@H]2N=C(c3ccccc3)c3ccccc3NC2=O)o1 | > 0.8 µM
72 | N#Cc1ccc(-c2cnc(NC3N=C(c4ccccc4)c4ccccc4NC3=O)o2)cc1 (configuration not stated) | in the range around 0.6 µM
73 | N#Cc1cnc(-c2nnc(N[C@H]3N=C(c4ccccc4)c4ccccc4NC3=O)o2)c(N2C3CCC2COC3)c1 | in the range around 0.6 µM
74 | C[C@@H]1COCCN1c1cc(C#N)ccc1-c1nnc(N[C@H]2N=C(c3ccccc3)c3ccccc3NC2=O)o1 | < 0.4 µM
75 | Cc1nnc(NC2N=C(c3ccccc3)c3ccccc3NC2=O)o1 (configuration not stated) | > 0.8 µM
76 | O=C1Nc2ccccc2C(c2ccccc2)=N[C@@H]1Nc1nnc(-c2ncc(C(F)(F)F)cc2C2CC2)o1 | > 0.8 µM
77 | O=C1Nc2ccccc2C(c2ccccc2)=NC1Nc1nnc(-c2ccc(C(F)(F)F)cn2)o1 (configuration not stated) | > 0.8 µM
78 | O=C1Nc2ccccc2C(c2ccccc2)=NC1Nc1nnc(-c2ccccc2N2CCOCC2)[nH]1 (configuration not stated) | > 0.8 µM
79 | O=C1Nc2ccccc2C(c2ccccc2)=N[C@H]1Nc1nnc(-c2ccccc2N2CCOCC2)o1 | > 0.8 µM
80 | COC[C@H]1C[C@@H]1c1cc(C(F)(F)F)cnc1-c1nnc(N[C@@H]2N=C(c3ccccc3)c3ccccc3NC2=O)o1 | > 0.8 µM
81 | COC1CN(c2cc(C(F)(F)F)cnc2-c2nnc(N[C@H]3N=C(c4ccccc4)c4ccccc4NC3=O)o2)C1 | > 0.8 µM
82 | O=C1Nc2ccccc2C(c2ccccc2)=NC1Nc1nnc(-c2ncccn2)o1 (configuration not stated) | > 0.8 µM
83 | O=C1Nc2ccccc2C(c2ccccc2)=NC1Nc1nnc(-c2ccncc2)s1 (configuration not stated) | > 0.8 µM
84 | Cc1nc(-c2nnc(N[C@H]3N=C(c4ccccc4)c4ccccc4NC3=O)o2)c(Cl)s1 | > 0.8 µM
85 | O=C1Nc2ccccc2C(c2ccccc2)=N[C@@H]1Nc1nnc(-c2nnsc2N2CCOCC2)o1 | < 0.4 µM
86 | O=C1Nc2ccccc2C(c2ccc(F)cc2)=NC1Nc1nnc(-c2ccc(F)cc2)o1 (configuration not stated) | > 0.8 µM
87 | COCCn1ccc2cccc(C(=O)OC)c21 | > 0.8 µM
88 | CN1CCN(c2ccccc2-c2nnc(NC3N=C(c4ccccc4)c4ccccc4NC3=O)o2)CC1 (configuration not stated) | > 0.8 µM
89 | CCOC(=O)c1nc(C(F)(F)F)sc1C1=CCOCC1 | < 0.4 µM
90 | O=C1Nc2ccccc2C(c2ccccc2)=NC1Nc1nc(-c2ccccc2)ns1 (configuration not stated) | > 0.8 µM
91 | Cc1nc(-c2nnc(N[C@H]3N=C(c4ccccc4)c4ccccc4NC3=O)o2)c(N2CCOCC2)o1 | < 0.4 µM
92 | N#Cc1ccc(-c2nnc(N[C@H]3N=C(c4ccccc4)c4ccccc4NC3=O)o2)c(N2C3CCC2COC3)c1 | < 0.4 µM
